From publication PMC7489219 (Molecular Brain, 2020) come the findings set out here.

The term inhibition denotes the drop in the measured response relative to a control, in per cent.

Molecules are shown by their SMILES. Counter-ions that a name gives are not always drawn.

This test deals with T1, primary mouse cortical neurons.
T1 construct: primary cortical neurons, DIV 10
Nature of the test: cells. To be noted: Cortical neurone, 20 h, read-out: % inhibition, inhibition of NMDA-induced cell death (protection score), 30 min pre-treatment. Further details: Protection from NMDA-induced (30 uM, 10 min) neuronal death; Hoechst nuclear morphology by automated microscopy. The procedure:
On DIV 10, compounds were applied to the cells reaching an end concentration of 10 μM. Cells were incubated for 30 min at 37 °C, 5% CO2 before adding NMDA (30 μM). Cells were incubated for another 10 min in the incubator, then washed twice with defined minimal medium containing 10 μM of the respective compound and incubated for an additional 20 h before readout. Untreated (no NMDA) and NMDA-only stimulated wells were treated with 0.1% DMSO. […] After 15 min of incubation at room temperature, cells were washed twice with phosphate buffered saline. […] Dead neurons were identified by amorphous or shrunken nuclei using CellProfiler and CellProfiler Analyst software. For all cell death analyses the experimental unit (N) is defined as an independent experiment using an independent neuronal preparation. For each independent experiment, data from 3 replicate wells (i.e., from 36 images), representing an average of 3000 cells was analyzed per condition. The survival rate S was calculated by dividing the number of living cells by the total number of cells. The survival rate was then used to calculate the protection score according to Scompound−Svehicle/Suntreated−Svehicle×100=%protection , where ‘compound’ refers to compound + NMDA treatment, ‘vehicle’ refers to vehicle + NMDA treatment, and ‘untreated’ refers to DMSO control. […] As a proof of principle, we next used our assay to screen two commercially available drug libraries. In these screens, primary cortical cells were incubated with test compounds at 10 μM concentration for 30 min before addition of 30 μM NMDA. After 10 min NMDA treatment, cells were washed with fresh medium and kept in the presence of test compounds for 20 h until assessment of cell viability. […] This library covers structurally diverse drugs from several fields such as oncology, cardiology, immunology, and neurology/psychiatry.

For `CN1CC(=O)N2[C@H](c3ccc4c(c3)OCO4)c3[nH]c4ccccc4c3C[C@@H]2C1=O` [Tadalafil (Cialis)], the inhibition at 10 µM is 0.202%.
For `C[C@@H](O)[C@H]1C(=O)N2C(C(=O)[O-])=C(SC3Cn4cnc[n+]4C3)[C@H](C)[C@H]12` (some centres unmarked) [Biapenem], the inhibition at 10 µM amounted to 3.3%.
To `CN(C)CCc1c[nH]c2ccc(C[C@H]3COC(=O)N3)cc12` [Zolmitriptan (Zomig)] belongs 41.2%; to `CCOC(=O)c1ncn2c1CN(C)C(=O)c1cc(F)ccc1-2` [Flumazenil], -13.8%; to `Nc1nc(F)nc2c1ncn2[C@@H]1O[C@H](CO)[C@@H](O)[C@@H]1O` [Fludarabine (Fludara)], 16.2%.
To `NC(=O)N1c2ccccc2C=Cc2ccccc21` [Carbamazepine (Carbatrol)] belongs 2.33%; to `CCCCCCCCCCC[C@@H](C[C@@H]1OC(=O)[C@H]1CCCCCC)OC(=O)[C@H](CC(C)C)NC=O` [Orlistat (Alli, Xenical)], -9.87%; to `Nc1nc(=O)[nH]cc1F` [Flucytosine (Ancobon)], 3.84%.
For `Oc1ccc(OCc2ccccc2)cc1` [Monobenzone (Benoquin)], the inhibition at 10 µM was 49.3%.
As to `COc1ccc([C@@H]2CC(=O)c3c(O)cc(O[C@@H]4O[C@H](CO[C@@H]5O[C@@H](C)[C@H](O)[C@@H](O)[C@H]5O)[C@@H](O)[C@H](O)[C@H]4O)cc3O2)cc1OC` [Methyl-Hesperidin], the inhibition at 10 µM is -2.33%.
To `CN(C)c1ccc(C(=C2C=CC(=[N+](C)C)C=C2)c2ccc(N(C)C)cc2)cc1` [Crystal violet] belongs -3.37%; to `CCCCCOC(=O)Nc1nc(=O)n([C@@H]2O[C@H](C)[C@@H](O)[C@H]2O)cc1F` [Capecitabine (Xeloda)], 3.74%; to `CN1C(C(=O)Nc2ccccn2)=C(O)c2ccccc2S1(=O)=O` [Piroxicam (Feldene)], 4.8%.
The result for `COc1cc2c(cc1O)CC[C@@H]1[C@@H]2CC[C@]2(C)[C@@H](O)CC[C@@H]12` [2-Methoxyestradiol] reads 19.8%; that for `O=C(NCCO[N+](=O)[O-])c1cccnc1` [Nicorandil (Ikorel)], 51%; that for `Cc1cnc(C(=O)NCCc2ccc(S(=O)(=O)NC(=O)NC3CCCCC3)cc2)cn1` [Glipizide (Glucotrol)], 9.36%.
To `CC(=O)OCC(=O)[C@@]12OC(C)(C)O[C@@H]1C[C@H]1[C@@H]3C[C@H](F)C4=CC(=O)C=C[C@]4(C)[C@@]3(F)[C@@H](O)C[C@@]12C` [Fluocinonide (Vanos)] belongs -1.57%.
`CC(=O)OCC(=O)[C@@]12N=C(C)O[C@@H]1C[C@H]1[C@@H]3CCC4=CC(=O)C=C[C@]4(C)[C@H]3[C@@H](O)C[C@@]12C` [Deflazacort (Calcort)]: the inhibition at 10 µM is -1.74%.
The result for `O=C(CCc1ccc(O)cc1)c1c(O)cc(O)cc1O` [Phloretin (Dihydronaringenin)] reads -1.62%; that for `O=C1C[C@@H](c2ccc(O)cc2)Oc2cc(O)cc(O)c21` [Naringenin], -3.44%.
The result for `O=c1c(O)c(-c2ccc(O)c(O)c2)oc2cc(O)ccc12` [Fisetin (Fustel)] reads -2.5%; that for `CNC(=O)c1cc(Oc2ccc(NC(=O)Nc3ccc(Cl)c(C(F)(F)F)c3)cc2)ccn1` [Sorafenib (Nexavar)], -5.2%.
The result for `CCOC(=O)[C@H](CCc1ccccc1)N[C@@H](C)C(=O)N1[C@H](C(=O)O)C[C@@H]2CCC[C@@H]21` [Ramipril (Altace)] reads -0.755%.
Take `CN(C)C(=O)C(CCN1CCC(O)(c2ccc(Cl)cc2)CC1)(c1ccccc1)c1ccccc1` [Loperamide hydrochloride]: the inhibition at 10 µM is -2.48%.
To `COc1ccccc1OCC(O)CO` (centres unmarked) [Guaifenesin (Guaiphenesin)] belongs 13.1%; to `CCCc1nc(C)c2c(=O)nc(-c3cc(S(=O)(=O)N4CCN(CC)CC4)ccc3OCC)[nH]n12` [Vardenafil (Vivanza)], -5.64%; to `CCc1cc(C(N)=S)ccn1` [Ethionamide], 27.7%.
On to `COc1ccc(-c2oc3c(CC=C(C)C)c(O[C@@H]4O[C@H](CO)[C@@H](O)[C@H](O)[C@H]4O)cc(O)c3c(=O)c2O[C@@H]2O[C@@H](C)[C@H](O)[C@@H](O)[C@H]2O)cc1` [Icariin], for which the inhibition at 10 µM was -2.42%.
The result for `C[C@]12C=CC(=O)N[C@@H]1CC[C@@H]1[C@@H]2CC[C@]2(C)[C@@H](C(=O)Nc3cc(C(F)(F)F)ccc3C(F)(F)F)CC[C@@H]12` [Dutasteride] reads 113%.
The result for `CC[C@@]1(O)C(=O)OCc2c1cc1n(c2=O)Cc2cc3ccccc3nc2-1` [Camptothecin] reads -13.4%; that for `CN(C)C(=N)NC(=N)N` [Metformin hydrochloride (Glucophage)], 10.2%; that for `CS(=O)(=O)CCNCc1ccc(-c2ccc3ncnc(Nc4ccc(OCc5cccc(F)c5)c(Cl)c4)c3c2)o1` [Lapatinib Ditosylate (Tykerb)], 4.76%.
The result for `Nc1ccn([C@@H]2CS[C@H](CO)O2)c(=O)n1` [Lamivudine (Epivir)] reads 0.555%; that for `COc1cc2nc(N(C)CCCNC(=O)C3CCCO3)nc(N)c2cc1OC` (centres unmarked) [Alfuzosin hydrochloride (Uroxatral)], -0.34%; that for `CN(C)C(=O)Oc1cccc([N+](C)(C)C)c1` [Neostigmine bromide (Prostigmin)], -0.504%.
Take `C=CC[N+]1([C@H]2C[C@H]3[C@@H]4CC[C@H]5C[C@H](O)[C@@H](N6CCOCC6)C[C@]5(C)[C@H]4CC[C@]3(C)[C@H]2OC(C)=O)CCCC1` [Rocuronium bromide]: the inhibition at 10 µM is -0.727%.
The result for `CCN(CC)CCOc1ccc(C(=C(Cl)c2ccccc2)c2ccccc2)cc1` [Clomifene citrate (Serophene)] reads -1.18%; that for `CCCCNc1cc(C(=O)O)cc(S(N)(=O)=O)c1Oc1ccccc1` [Bumetanide], -2.16%; that for `C[C@]12CC[C@@H]3c4ccc(O)cc4CC[C@H]3[C@@H]1CCC2=O` [Estrone], -2.18%.
To `COc1ccccc1N1CCN(CC(O)COc2cccc3ccccc23)CC1` (centres unmarked) [Naftopidil (Flivas)] belongs -8.14%; to `CC(C(=O)O)c1cccc(C(=O)c2ccccc2)c1` (centres unmarked) [Ketoprofen (Actron)], 30.2%; to `COC(=O)[C@H](c1ccccc1Cl)N1CCc2sccc2C1` [Clopidogrel (Plavix)], -12%.
In the case of `CN1CCN(C2=Nc3cc(Cl)ccc3Nc3ccccc32)CC1` [Clozapine (Clozaril)], the inhibition at 10 µM was -5.01%.
The result for `Cc1noc(NS(=O)(=O)c2ccc(N)cc2)c1C` [Sulfisoxazole] reads -0.221%; that for `O=C(CCc1ccc(O)cc1)c1c(O)cc(O)cc1O[C@@H]1O[C@H](CO)[C@@H](O)[C@H](O)[C@H]1O` [Phlorizin (Phloridzin)], -2.89%.
Take `C[C@@](Cc1ccc(O)c(O)c1)(NN)C(=O)O` [Carbidopa]: the inhibition at 10 µM is -2.32%.
For `O=c1cccc2n1C[C@@H]1CNC[C@H]2C1` [Cytisine (Baphitoxine, Sophorine)], the inhibition at 10 µM is -0.723%.
